Values of other authors in patent US20080292693A1, “COMPOSITION AND METHOD FOR TREATING DIGESTIVE SYSTEM DISORDERS” (priority 2007, published 2008).

Assays:
Crohn's disease = settings: double-blind clinical study, daily dose of 1,000 mg

C=C(C)[C@H]1CC=C(C)CC1 [d-Limonene]
symptoms of Crohn's disease (Crohn's disease): significantly reduce | symptoms of GERD (GERD; double-blind clinical study, daily dose of 1,000 mg): significantly reduce | responders free of GERD symptoms (GERD; one GERD study, for up to six months without taking an additional dose): fifty
